Where two headings read alike, the source gives them in different places.

Broadly, the AUC(0-inf) is the area under the concentration-time curve extrapolated to infinity. A higher AUC(0-inf) goes with more exposure. The term AUC(0-t) denotes exposure summed from dosing to a finite time, without extrapolation to infinity. The low end stands for less exposure, the high end for more exposure. By Cmax is commonly meant the maximum level reached in the sampled fluid or tissue. Usually half-life stands for how long it takes for the measured level to halve. A lower half-life goes with rapid decline.

The target in one series is T1, ATR/ATRIP enzyme (Homo sapiens, UniProt Q13535).
T1 construct: purchased Eurofins 14-953
T1 sequence (Q13535 whole entry): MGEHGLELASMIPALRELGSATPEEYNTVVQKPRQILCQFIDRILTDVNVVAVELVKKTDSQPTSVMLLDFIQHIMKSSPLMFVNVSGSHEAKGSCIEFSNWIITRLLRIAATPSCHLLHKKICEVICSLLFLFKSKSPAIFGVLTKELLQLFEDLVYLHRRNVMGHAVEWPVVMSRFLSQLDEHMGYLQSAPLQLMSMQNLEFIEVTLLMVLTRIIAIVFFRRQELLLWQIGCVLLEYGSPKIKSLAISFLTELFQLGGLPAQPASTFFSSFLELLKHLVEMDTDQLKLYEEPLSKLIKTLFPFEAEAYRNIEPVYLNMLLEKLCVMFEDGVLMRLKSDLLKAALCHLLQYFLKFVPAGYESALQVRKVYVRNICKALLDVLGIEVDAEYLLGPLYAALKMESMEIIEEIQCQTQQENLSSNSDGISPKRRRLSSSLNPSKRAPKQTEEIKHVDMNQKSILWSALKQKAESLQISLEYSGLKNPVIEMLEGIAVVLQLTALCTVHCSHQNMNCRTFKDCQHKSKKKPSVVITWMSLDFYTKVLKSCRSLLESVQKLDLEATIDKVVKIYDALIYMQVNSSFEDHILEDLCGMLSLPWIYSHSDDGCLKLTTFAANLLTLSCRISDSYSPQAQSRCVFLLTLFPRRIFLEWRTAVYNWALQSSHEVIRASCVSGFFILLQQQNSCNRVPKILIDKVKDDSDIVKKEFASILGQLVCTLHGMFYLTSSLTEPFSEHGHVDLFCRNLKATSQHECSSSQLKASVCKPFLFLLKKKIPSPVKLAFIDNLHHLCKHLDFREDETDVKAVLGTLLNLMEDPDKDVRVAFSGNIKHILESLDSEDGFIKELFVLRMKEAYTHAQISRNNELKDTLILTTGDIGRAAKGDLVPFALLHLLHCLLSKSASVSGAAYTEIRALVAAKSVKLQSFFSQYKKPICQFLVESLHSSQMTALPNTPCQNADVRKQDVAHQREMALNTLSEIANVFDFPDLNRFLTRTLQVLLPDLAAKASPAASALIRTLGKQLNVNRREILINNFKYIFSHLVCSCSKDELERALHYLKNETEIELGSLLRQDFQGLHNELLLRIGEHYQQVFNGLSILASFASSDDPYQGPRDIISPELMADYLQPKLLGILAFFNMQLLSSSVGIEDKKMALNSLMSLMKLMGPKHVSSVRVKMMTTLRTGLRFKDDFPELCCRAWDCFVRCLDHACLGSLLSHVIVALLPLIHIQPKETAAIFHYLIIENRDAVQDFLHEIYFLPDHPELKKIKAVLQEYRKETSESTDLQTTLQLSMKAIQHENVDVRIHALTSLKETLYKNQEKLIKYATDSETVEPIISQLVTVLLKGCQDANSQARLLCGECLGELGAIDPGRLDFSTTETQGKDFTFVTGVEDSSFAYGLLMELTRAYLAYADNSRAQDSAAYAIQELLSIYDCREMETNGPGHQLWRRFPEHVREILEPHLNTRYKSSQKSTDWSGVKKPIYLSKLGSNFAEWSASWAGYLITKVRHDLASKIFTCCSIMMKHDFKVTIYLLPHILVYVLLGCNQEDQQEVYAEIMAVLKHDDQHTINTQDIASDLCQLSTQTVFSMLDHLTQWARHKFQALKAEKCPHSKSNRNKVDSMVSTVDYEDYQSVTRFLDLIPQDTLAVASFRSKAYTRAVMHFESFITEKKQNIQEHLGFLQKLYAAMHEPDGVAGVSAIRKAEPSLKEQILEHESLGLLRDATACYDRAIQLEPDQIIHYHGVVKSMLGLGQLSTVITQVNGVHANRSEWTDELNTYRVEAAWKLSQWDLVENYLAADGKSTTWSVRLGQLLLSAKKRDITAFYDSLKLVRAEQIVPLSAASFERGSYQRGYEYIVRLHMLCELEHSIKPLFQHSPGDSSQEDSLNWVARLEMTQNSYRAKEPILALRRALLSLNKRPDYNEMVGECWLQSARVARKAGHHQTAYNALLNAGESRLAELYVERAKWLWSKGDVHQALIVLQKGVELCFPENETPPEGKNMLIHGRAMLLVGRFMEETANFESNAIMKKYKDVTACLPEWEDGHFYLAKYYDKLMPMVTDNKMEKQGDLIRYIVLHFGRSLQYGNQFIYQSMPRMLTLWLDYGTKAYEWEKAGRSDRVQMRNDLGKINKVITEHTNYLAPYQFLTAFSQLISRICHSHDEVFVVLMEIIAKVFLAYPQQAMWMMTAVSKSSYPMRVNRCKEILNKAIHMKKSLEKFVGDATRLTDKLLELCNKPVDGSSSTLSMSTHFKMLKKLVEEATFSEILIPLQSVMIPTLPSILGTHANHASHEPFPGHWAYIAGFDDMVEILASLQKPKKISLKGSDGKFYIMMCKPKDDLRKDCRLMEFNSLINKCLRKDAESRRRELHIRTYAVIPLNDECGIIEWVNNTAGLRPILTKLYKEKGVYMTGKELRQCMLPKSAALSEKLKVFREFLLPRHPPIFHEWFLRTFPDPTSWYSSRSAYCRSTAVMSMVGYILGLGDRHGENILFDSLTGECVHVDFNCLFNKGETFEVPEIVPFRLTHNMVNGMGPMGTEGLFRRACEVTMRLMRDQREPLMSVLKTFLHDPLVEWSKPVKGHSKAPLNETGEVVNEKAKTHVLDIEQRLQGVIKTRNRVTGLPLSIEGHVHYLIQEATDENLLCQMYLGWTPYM
T1 sequence (Q8WXE1 whole entry partner): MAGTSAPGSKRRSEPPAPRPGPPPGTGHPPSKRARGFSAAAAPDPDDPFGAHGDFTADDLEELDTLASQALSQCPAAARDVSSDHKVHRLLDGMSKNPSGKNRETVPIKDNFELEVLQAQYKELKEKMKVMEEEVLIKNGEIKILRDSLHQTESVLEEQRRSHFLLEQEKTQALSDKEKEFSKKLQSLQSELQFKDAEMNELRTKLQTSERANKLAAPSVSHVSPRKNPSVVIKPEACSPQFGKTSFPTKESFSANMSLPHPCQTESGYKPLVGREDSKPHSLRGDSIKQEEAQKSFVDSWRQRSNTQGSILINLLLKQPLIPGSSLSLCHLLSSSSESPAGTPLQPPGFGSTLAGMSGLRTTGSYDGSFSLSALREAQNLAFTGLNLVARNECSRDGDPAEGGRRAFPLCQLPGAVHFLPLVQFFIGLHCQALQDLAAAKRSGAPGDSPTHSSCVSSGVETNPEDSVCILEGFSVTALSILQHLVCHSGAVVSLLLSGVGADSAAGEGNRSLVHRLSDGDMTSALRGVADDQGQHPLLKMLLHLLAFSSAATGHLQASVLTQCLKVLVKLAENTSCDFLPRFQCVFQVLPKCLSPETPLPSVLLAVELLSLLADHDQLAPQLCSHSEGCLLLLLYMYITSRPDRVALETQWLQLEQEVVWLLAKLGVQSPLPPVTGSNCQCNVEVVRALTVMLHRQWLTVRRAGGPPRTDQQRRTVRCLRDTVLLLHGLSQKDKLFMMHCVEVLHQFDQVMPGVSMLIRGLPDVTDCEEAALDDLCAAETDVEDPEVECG
In words: ATR enzyme activity experiment (HTRF). The series is classed as biochemical. The note with it: p53 substrate, 30 min room temperature, read-out: IC50 (nM), inhibitory effect on ATR kinase activity. On the procedure:
The mixture was centrifuged at 1000 rpm for 1 minute, and reacted at room temperature protected from light for 30 minutes. Then 5 μL of EDTA stop solution (250 mM) was added to stop the reaction.
Background: Time-resolved FRET reads energy transfer from a long-lived donor to a nearby acceptor.

The test system of series [1] is human lung cancer NCI-H460 cell. In words: MTT proliferation assay, NCI-H460. The class given is cell-based. Particulars: NCI-H460, 96 h, MTT, 4 days, read-out: IC50 (nM), proliferation of NCI-H460 cell. Here is the method: The cells were digested by trypsinase and centrifuged at 800 rpm for 5 minutes, the supernatant was discarded, and the residual was resuspended with fresh medium […]) and counted.
(§1) The cells were seeded into 96-well cell culture plate with a density of 2000/4000 cells per well and incubated overnight in a 5% CO2 incubator at 37° C. […] 5 μL diluent of each concentration was added to 120 μL of medium (25 times diluted) and mixed by shaking. The overnight cell plates were taken and the culture medium was removed, 195 μL of fresh medium was added to each well, and 5 μL of diluted medium containing the corresponding concentration of the test compound was added respectively (the final concentration of DMSO is 1%), and the culture plate was then placed in a 5% CO2 incubator at 37° C. for 4 days. After removing the original solution, 100 μL of fresh serum-free DMEM medium containing MTT (0.5 mg/mL) was added to each well, the culture was continued. […] Cell viability (%)=(ODcompound−ODbackground)/(ODDMSO−ODbackground)×100. GraphPad Prism 6.0 was used to analyze the data. The inhibitory activity of compounds on cell proliferation was plotted based on cell viability and the logarithm of compound concentration. The IC50 value was fitted by a sigmoidal dose response curve equation Y−100/(1+10^(LogC−LogIC50)), wherein C was the concentration of compound.

In series [2] the test system is human colon cancer LoVo cell. In words: MTT proliferation assay, LoVo. Particulars: MTT, 4 days, read-out: IC50 (nM), proliferation of LoVo cell. The class given is cell-based. On the procedure: as §1, with “[…]” for “100 μL”, “viability (%)=(ODcompound−ODbackground)/ODDMSO−ODbackground)×100.” for “viability (%)=(ODcompound−ODbackground)/(ODDMSO−ODbackground)×100.”, “The IC5.0” for “The IC50”, “equation Y=100/(1+10^(LogC-LogIC50)),” for “equation Y−100/(1+10^(LogC−LogIC50)),”
In general terms: Formazan colour is commonly taken as a measure of viable cells.

A short description of series [3]: Pharmacokinetics following single oral administration to mice. Particulars: mouse, CD-1 (ICR) mice, gavage 10 mg/kg, 0.5% methylcellulose/water suspension, plasma. The series is classed as in vivo. Here is the method: The compound of the present invention was formulated into a 0.5% methylcellulose/water uniform suspension, and was administered to CD-1 (ICR) mice by gavage at 10 mg/kg. Plasma samples were collected at 8 time points of 0.250, 0.500, 1.00, 2.00, 4.00, 6.00, 8.00 and 24.0 hours post-dose. Concentrations of the compound were determined by LC-MS/MS method.

For the compound `CCn1nccc1-c1cc(N2CCOC[C@H]2C)nn2c(-c3ccn[nH]3)nc(C)c12` [Example 2, (R)-4-(4-(1-ethyl-1H-pyrazol-5-yl)-5-methyl-7-(1H-pyrazol-5-yl)imidazo[1,5-b]pyridazin-2-yl)-3-methylmorpholine], the IC50 on ATR/ATRIP enzyme was found to be 3 nM; in series [1] it was 21.9 nM; in series [2] (Homo sapiens, LoVo, 96 h), 43.6 nM.
`Cc1ccccc1-c1cc(N2CCOC[C@H]2C)nn2c(-c3ccn[nH]3)nc(C)c12` [Example 3, (R)-3-methyl-4-(5-methyl-7-(1H-pyrazol-5-yl)-4-(o-tolyl)imidazo[1,5-b]pyridazin-2-yl)morpholine]: the IC50 at ATR/ATRIP enzyme worked out at 2 nM; in series [1] it was 27.3 nM; in series [2] (Homo sapiens, LoVo, 96 h), 49.5 nM.
Consider `Cc1ncccc1-c1cc(N2CCOC[C@H]2C)nn2c(-c3ccn[nH]3)nc(C)c12` [Example 4, (R)-3-methyl-4-(5-methyl-4-(2-methylpyridin-3-yl)-7-(1H-pyrazol-5-yl)imidazo[1,5-b]pyridazin-2-yl)morpholine], for which the IC50 at ATR/ATRIP enzyme was determined as 3 nM. Moreover, the IC50 in series [1] came out at 13 nM. Also, the IC50 in series [2] (Homo sapiens, LoVo, 96 h) was found to be 26.9 nM. In addition, in series [3], the AUC(0-inf) was found to be 44000 ng·h/mL, the AUC(0-t) was determined as 43400 ng·h/mL, the Cmax was 9010 ng/mL and the half-life was 3.2 h.
`Cc1nc(-c2ccn[nH]2)n2nc(N3CCOC[C@H]3C)cc(-c3cccnc3C(F)(F)F)c12` [Example 5, (R)-3-methyl-4-(5-methyl-7-(1H-pyrazol-5-yl)-4-(2-(trifluoromethyl)pyridin-3-yl)imidazo[1,5-b]pyridazin-2-yl)morpholine]: the IC50 at ATR/ATRIP enzyme stood at 3 nM. Besides, in series [1], the IC50 was determined as 17.8 nM. Also, the IC50 in series [2] (Homo sapiens, LoVo, 96 h) worked out at 25.5 nM. In series [3], this compound gave an area under the curve AUC(0-inf) of 31700 ng·h/mL, an AUC(0-t) of 30800 ng·h/mL, a Cmax of 8930 ng/mL and a half-life of 3.42 h.
As to `Cc1nc(-c2ccn[nH]2)n2nc(N3CCOC[C@H]3C)cc(-c3cccc(C#N)c3)c12` [Example 6, (R)-3-(5-methyl-2-(3-methylmorpholino)-7-(1H-pyrazol-5-yl)imidazol, [1,5-b]pyridazin-4-yl)benzonitrile], the IC50 was 5 nM on ATR/ATRIP enzyme; 21.8 nM in series [1]; 44.1 nM in series [2] (Homo sapiens, LoVo, 96 h).
Consider `Cc1nc(-c2ccn[nH]2)n2nc(N3CCOC[C@H]3C)cc(C3CCOCC3)c12` [Example 7, (R)-3-methyl-4-(5-methyl-7-(1H-pyrazol-5-yl)-4-(tetrahydro-2H-pyran-4-yl)imidazol[1,5-b]pyridazin-2-yl)morpholine], for which the IC50 at ATR/ATRIP enzyme was determined as 1 nM; in series [1], 15.7 nM; in series [2] (Homo sapiens, LoVo, 96 h) it was 24.6 nM.
Regarding `Cc1cc(-c2nc(C)c3c(-c4ccnn4C)cc(N4CCOC[C@H]4C)nn23)[nH]n1` [Example 8, (R)-3-methyl-4-(5-methyl-4-(1-methyl-1H-pyrazol-5-yl)-7-(3-methyl-1H-pyrazol-5-yl)imidazo[1,5-b]pyridazin-2-yl)morpholine], the IC50 at ATR/ATRIP enzyme was found to be 4 nM; in series [1], 14.9 nM; in series [2] (Homo sapiens, LoVo, 96 h) it was 17.9 nM.
With `Cc1nc(-c2ccn[nH]2)n2nc(N3CCOC[C@H]3C)cc(-c3ccnn3C(C)C)c12` [Example 9, (R)-4-(4-(1-isopropyl-1H-pyrazol-5-yl)-5-methyl-7-(1H-pyrazol-5-yl)imidazo[1,5-b]pyridazin-2-yl)-3-methylmorpholine], the IC50 came to 3 nM on ATR/ATRIP enzyme; 30.2 nM in series [1]; 39.3 nM in series [2] (Homo sapiens, LoVo, 96 h).
Regarding `Cc1nc(-c2ccn[nH]2)n2nc(N3CCOC[C@H]3C)cc(-c3ccn(C(F)F)n3)c12` [Example 10, (R)-4-(4-(1-(difluoromethyl)-1H-pyrazol-3-yl)-5-methyl-7-(1H-pyrazol-5-yl)imidazo[1,5-b]pyridazin-2-yl)-3-methylmorpholine], the IC50 on ATR/ATRIP enzyme came out at 217 nM; in series [1] it was 97.3 nM; in series [2] (Homo sapiens, LoVo, 96 h), 116 nM.
On to `Cc1cnn(C)c1-c1cc(N2CCOC[C@H]2C)nn2c(-c3ccn[nH]3)nc(C)c12` [Example 11, (R)-4-(4-(1,4-dimethyl-1H-pyrazol-5-yl)-5-methyl-7-(1H-pyrazol-5-yl)imidazo[1,5-b]pyridazin-2-yl)-3-methylmorpholine], for which the IC50 at ATR/ATRIP enzyme was determined as 2 nM; in series [1] it was 30.1 nM.
For the compound `Cc1nc(-c2ccn[nH]2)n2nc(N3CCOC[C@H]3C)cc(-c3cnn(C)c3C)c12` [Example 12, (R)-4-(4-(1,5-dimethyl-1H-pyrazol-4-yl)-5-methyl-7-(1H-pyrazol-5-yl)imidazo[1,5-b]pyridazin-2-yl)-3-methylmorpholine], the IC50 is 1 nM on ATR/ATRIP enzyme; 28 nM in series [1]; 19.6 nM in series [2] (Homo sapiens, LoVo, 96 h).
For `Cc1nn(C)cc1-c1cc(N2CCOC[C@H]2C)nn2c(-c3ccn[nH]3)nc(C)c12` [Example 13, (R)-4-(4-(1,3-dimethyl-1H-pyrazol-4-yl)-5-methyl-7-(1H-pyrazol-5-yl)imidazo[1,5-b]pyridazin-2-yl)-3-methylmorpholine], the IC50 on ATR/ATRIP enzyme amounted to 14 nM; in series [1], 33.2 nM; in series [2] (Homo sapiens, LoVo, 96 h), 46.5 nM.
On to `Cc1cc(S(C)(=O)=O)ccc1-c1cc(N2CCOC[C@H]2C)nn2c(-c3ccn[nH]3)nc(C)c12` [Example 15, (R)-3-methyl-4-(5-methyl-4-(2-methyl-4-(methylsulfonyl)phenyl)-7-(1H-pyrazol-5-yl)imidazo[1,5-b]pyridazin-2-34)morpholine], for which the IC50 was 6 nM on ATR/ATRIP enzyme; 12.5 nM in series [1]; 19.5 nM in series [2] (Homo sapiens, LoVo, 96 h).
In the case of `Cc1nc(-c2ccn[nH]2)n2nc(N3CCOC[C@H]3C)cc(-c3cccnc3F)c12` [Example 16, (R)-4-(4-(2-fluoropyridin-3-yl)-5-methyl-7-(1H-pyrazol-5-yl)imidazo[1,5-b]pyridazin-2-yl)-3-methylmorpholine], the IC50 stood at 9 nM on ATR/ATRIP enzyme; 12.5 nM in series [1]; 17.6 nM in series [2] (Homo sapiens, LoVo, 96 h).
Taken in the same sequence, the figures for `Cc1ccc(-c2cc(N3CCOC[C@H]3C)nn3c(-c4ccn[nH]4)nc(C)c23)cn1` [Example 17, (R)-3-methyl-4-(5-methyl-4-(6-methylpyridin-3yl)-7-(1H-pyrazol-5-yl)imidazo[1,5-b]pyridazin-2-yl)morpholine] were 18 nM, 45.8 nM and 49.1 nM.
Turning to `Cc1nc(-c2ccn[nH]2)n2nc(N3CCOC[C@H]3C)cc(-c3ccncc3F)c12` [Example 18, (R)-4-(4-(3-fluoropyridin-4-yl)-5-methyl-7-(1H-pyrazol-5-yl)imidazo[1,5-b]pyridazin-2-yl)-3-methylmorpholine], the IC50 on ATR/ATRIP enzyme was 10 nM; in series [1], 28 nM; in series [2] (Homo sapiens, LoVo, 96 h) it was 41.8 nM; in series [2] it was 47.2 nM.
Consider `C[C@@H]1COCCN1c1cc(-c2ccnn2C)c2c(F)nc(-c3ccn[nH]3)n2n1` [Example 20, (R)-4-(5-fluoro-4-(1-methyl-1H-pyrazol-5-yl)-7-(1H-pyrazol-5-yl)imidazo[1,5-b]pyridazin-2-yl)-3-methylmorpholine], for which the IC50 at ATR/ATRIP enzyme amounted to 41 nM; in series [1] it was 89.9 nM; in series [2] (Homo sapiens, LoVo, 96 h), 79.1 nM.
Regarding `C[C@@H]1COCCN1c1nc(-c2ccnn2C)c2cnc(-c3cc[nH]n3)n2n1` [Example 27, (R)-3-methyl-4-(4-(1-methyl-1H-pyrazol-5-yl)-7-(1H-pyrazol-3-yl)imidazo[5,1-f][1,2,4]triazin-2-yl)morpholine], the IC50 in series [1] came out at 68.3 nM; in series [2] (Homo sapiens, LoVo, 96 h), 110 nM.

For the origin of these results see US20240059695A1, “SUBSTITUTED IMIDAZO[1,5-b]PYRIDAZINE COMPOUNDS AS KINASE INHIBITORS AND USE THEREOF” (IMPACT THERAPEUTICS (SHANGHAI), INC, priority 2020, published 2024).
